In patent US20260355325A1, “DIMER COMPOUNDS” (KESMALEA THERAPEUTICS LIMITED, priority 2023, published 2026):

The molecules below were run against T1, BTK (Homo sapiens, UniProt Q06187) (assay: BTK IFA Assay (BTK degradation in OCI-Ly10 cells)). Details: BTK degradation in OCI-Ly10 cells at 48-hour timepoint.
T1 construct: immunofluorescence degradation readout, 48 h
Assay type: cell-based
Procedure: The purpose of the BTK Assays were to assess the binding affinity of the dimer to BTK and subsequent protein degradation.
OCI-Ly10 cells were obtained from CoBioer Biosciences Co. Ltd, Shanghai, China, and maintained in IMDM (Invitrogen™, Waltham, MA) supplemented with 20% FBS (AusGeneX, Molendinar, Australia) and 1%, penicillin/streptomycin (Invitrogen™, Waltham, MA) in a humidified incubator at 5% CO2, 37° C.
Compounds were dissolved in DMSO (10 mM), serially diluted from 10 mM to 1.5 nM, and pre-incubated for 2 hours. Exponentially growing cells were seeded at 8×10^3 cells per well of 384 well plate (Corning, New York #356663). Cells were treated with compound for 48 hours. Following treatment, cells were fixed with 4% PFA (SolarBio Lifescience, Beijing, China) for 20 minutes, permeabilised in 100% ice-cold methanol (Merck, Darmstadt, Germany) for 10 minutes, and blocked with blocking buffer (LI-COR Biosciences Lincoln, NE) for 90 minutes.
Cells were incubated with primary BTK antibody (CST #8547 Danvers, MA) at 1:1000 dilution overnight in blocking buffer (LI-COR, Lincoln, NE) at 4° C. Cells were washed in DPBS (Thermo Fisher Scientific, Waltham, MA) and incubated with secondary antibody AlexaFluor 488 goat anti rabbit (Invitrogen™ #A-11008 Waltham, MA) 1:1000 dilution, with Hoechst stain (Invitrogen™ Waltham, MA) 1:5000 dilution in blocking buffer (LI-COR Biosciences, Lincoln, NE) for 90 minutes. After final DPBS wash, 200 ul of DPBS was added to the cells, and signal read on Operetta (Revvity, Waltham, MA). Each data point was performed in duplicate for every experiment. A DC50 value was calculated from linear regression analysis of the plots.

T1 sequence (Q06187 whole entry): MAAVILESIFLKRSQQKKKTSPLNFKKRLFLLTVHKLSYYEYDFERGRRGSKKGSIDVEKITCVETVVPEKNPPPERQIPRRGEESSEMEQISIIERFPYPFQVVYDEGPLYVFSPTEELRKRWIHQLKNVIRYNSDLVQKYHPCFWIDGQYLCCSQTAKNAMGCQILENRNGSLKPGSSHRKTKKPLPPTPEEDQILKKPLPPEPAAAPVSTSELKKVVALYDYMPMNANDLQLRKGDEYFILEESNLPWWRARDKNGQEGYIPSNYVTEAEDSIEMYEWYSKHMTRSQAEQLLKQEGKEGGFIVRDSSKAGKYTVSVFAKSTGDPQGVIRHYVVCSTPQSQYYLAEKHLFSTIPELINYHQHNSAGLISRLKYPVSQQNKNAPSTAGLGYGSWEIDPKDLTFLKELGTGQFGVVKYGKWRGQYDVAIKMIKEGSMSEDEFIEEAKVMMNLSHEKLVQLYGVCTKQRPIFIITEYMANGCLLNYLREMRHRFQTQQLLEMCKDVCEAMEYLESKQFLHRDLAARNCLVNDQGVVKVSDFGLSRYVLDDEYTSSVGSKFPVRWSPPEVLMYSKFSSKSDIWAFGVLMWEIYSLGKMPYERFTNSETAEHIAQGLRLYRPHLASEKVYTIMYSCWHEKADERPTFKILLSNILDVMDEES

DC50 | SMILES
100 to 500 nM | Cc1cc(C(=O)NCCC#Cc2cccc3c2CN(C2CCC(=O)NC2=O)C3=O)ccc1B1O[C@H]2C[C@H]3C[C@H](C3(C)C)[C@@]2(CCOCCN2CCC(n3nc(-c4ccc(Oc5ccccc5)cc4)c4c(N)ncnc43)CC2)O1 (mixture of isomers) [Example 15, 4-((3aR,4R,6R,7aS)-3a-(2-(2-(4-(4-amino-3-(4-phenoxyphenyl)-1H-pyrazolo[3,4-d]pyrimidin-1-yl)piperidin-1-yl)ethoxy)ethyl)-5,5-dimethylhexahydro-4,6-methanobenzo[d][1,3,2]dioxaborol-2-yl)-N-(4-(2-(2,6-dioxopiperidin-3-yl)-1-oxoisoindolin-4-yl)but-3-yn-1-yl)-3-methylbenzamide]
500 to 1000 nM | Cc1cc(C(=O)N(C)CCCOc2ccc3c(c2)n(C)c(=O)n3C2CCC(=O)NC2=O)ccc1B1O[C@H]2C[C@H]3C[C@H](C3(C)C)[C@@]2(CCOCC(=O)N2CCC(n3nc(-c4ccc(Oc5ccccc5)cc4)c4c(N)ncnc43)CC2)O1 (mixture of isomers) [Example 16, 4-((3aR,4R,6R,7aS)-3a-(2-(2-(4-(4-amino-3-(4-phenoxyphenyl)-1H-pyrazolo[3,4-d]pyrimidin-1-yl)piperidin-1-yl)-2-oxoethoxy)ethyl)-5,5-dimethylhexahydro-4,6-methanobenzo[d][1,3,2]dioxaborol-2-yl)-N-(3-((1-(2,6-dioxopiperidin-3-yl)-3-methyl-2-oxo-2,3-dihydro-1H-benzo[d]imidazol-5-yl)oxy)propyl)-N,3-dimethylbenzamide]
100 to 500 nM | Cc1cc(C(=O)NCCC#Cc2cccc3c2CN(C2CCC(=O)NC2=O)C3=O)ccc1B1O[C@H]2C[C@H]3C[C@H](C3(C)C)[C@@]2(CCOCC(=O)N2CCC(n3nc(-c4ccc(Oc5ccccc5)cc4)c4c(N)ncnc43)CC2)O1 (mixture of isomers) [Example 17, 4-((3aR,4R,6R,7aS)-3a-(2-(2-(4-(4-amino-3-(4-phenoxyphenyl)-1H-pyrazolo[3,4-d]pyrimidin-1-yl)piperidin-1-yl)-2-oxoethoxy)ethyl)-5,5-dimethylhexahydro-4,6-methanobenzo[d][1,3,2]dioxaborol-2-yl)-N-(4-(2-(2,6-dioxopiperidin-3-yl)-1-oxoisoindolin-4-yl)but-3-yn-1-yl)-3-methylbenzamide]
500 to 1000 nM | Cc1ccc(C(=O)N(C)CCCOc2cccc3c2CN(C2CCC(=O)NC2=O)C3=O)cc1B1O[C@H]2C[C@H]3C[C@H](C3(C)C)[C@@]2(CCOCC(=O)N2CCC(n3nc(-c4ccc(Oc5ccccc5)cc4)c4c(N)ncnc43)CC2)O1 (mixture of isomers) [Example 19, 3-((3aR,4R,6R,7aS)-3a-(2-(2-(4-(4-amino-3-(4-phenoxyphenyl)-1H-pyrazolo[3,4-d]pyrimidin-1-yl)piperidin-1-yl)-2-oxoethoxy)ethyl)-5,5-dimethylhexahydro-4,6-methanobenzo[d][1,3,2]dioxaborol-2-yl)-N-(3-((2-(2,6-dioxopiperidin-3-yl)-1-oxoisoindolin-4-yl)oxy)propyl)-N,4-dimethylbenzamide]
1000 to 10000 nM | Cc1cc(C(=O)N(C)CCOc2cccc3c2CN(C2CCC(=O)NC2=O)C3=O)ccc1B1O[C@H]2C[C@H]3C[C@H](C3(C)C)[C@@]2(CCOCC(=O)N2CCC(n3nc(-c4ccc(Oc5ccccc5)cc4)c4c(N)ncnc43)CC2)O1 (mixture of isomers) [Example 20, 4-((3aR,4R,6R,7aS)-3a-(2-(2-(4-(4-amino-3-(4-phenoxyphenyl)-1H-pyrazolo[3,4-d]pyrimidin-1-yl)piperidin-1-yl)-2-oxoethoxy)ethyl)-5,5-dimethylhexahydro-4,6-methanobenzo[d][1,3,2]dioxaborol-2-yl)-N-(2-((2-(2,6-dioxopiperidin-3-yl)-1-oxoisoindolin-4-yl)oxy)ethyl)-N,3-dimethylbenzamide]
100 to 500 nM | Cc1cc(C(=O)N(C)CCCOc2ccc3c(c2)n(C)c(=O)n3C2CCC(=O)NC2=O)ccc1B1O[C@H]2C[C@H]3C[C@H](C3(C)C)[C@@]2(CCOCCN2CCC(n3nc(-c4ccc(Oc5ccccc5)cc4)c4c(N)ncnc43)CC2)O1 (stereo partly drawn) [Example 14, 4-((3aR,4R,6R,7aS)-3a-(2-(2-(4-(4-amino-3-(4-phenoxyphenyl)-1H-pyrazolo[3,4-d]pyrimidin-1-yl)piperidin-1-yl)ethoxy)ethyl)-5,5-dimethylhexahydro-4,6-methanobenzo[d][1,3,2]dioxaborol-2-yl)-N-(3-((1-(2,6-dioxopiperidin-3-yl)-3-methyl-2-oxo-2,3-dihydro-1H-benzo[d]imidazol-5-yl)oxy)propyl)-N,3-dimethylbenzamide]
500 to 1000 nM | Cc1cc(C(=O)N(C)CCCOc2cccc3c2CN(C2CCC(=O)NC2=O)C3=O)ccc1B1O[C@H]2C[C@H]3C[C@H](C3(C)C)[C@@]2(CCOCC(=O)N2CCC(n3nc(-c4ccc(Oc5ccccc5)cc4)c4c(N)ncnc43)CC2)O1 (stereo partly drawn) [Example 18, 4-((3aR,4R,6R,7aS)-3a-(2-(2-(4-(4-amino-3-(4-phenoxyphenyl)-1H-pyrazolo[3,4-d]pyrimidin-1-yl)piperidin-1-yl)-2-oxoethoxy)ethyl)-5,5-dimethylhexahydro-4,6-methanobenzo[d][1,3,2]dioxaborol-2-yl)-N-(3-((2-(2,6-dioxopiperidin-3-yl)-1-oxoisoindolin-4-yl)oxy)propyl)-N,3-dimethylbenzamide]
